Assays:
[1] = system: Bscl2-GFP mouse embryonic stem (mES) reporter cell line; assay: ToxTracker assay, Bscl2-GFP DNA damage reporter; type: cell-based
Procedure: (§1) This methodology uses a two step-approach.
(§2) Metabolic was evaluated by addition of S9 liver extract. […] Only GFP expression in intact single cells is determined.

[2] = system: biomarkers Bscl2-GFP and Rtkn-GFP in mES reporter cell lines; assay: ToxTracker assay, overall genotoxicity conclusion; type: cell-based, mouse; details: Bscl2-GFP and Rtkn-GFP at 10, 25 and 50% cytotoxicity, absence and presence of rat S9
Procedure: as §1, §2

[3] = system: Rtkn-GFP mouse embryonic stem (mES) reporter cell line; assay: ToxTracker assay, Rtkn-GFP DNA damage reporter; type: cell-based
Procedure: as §1, §2

[4] = with S9 rat liver extract, at 10% cytotoxicity, 3 h exposure, 24 h recovery
[5] = with S9 rat liver extract, at 25% cytotoxicity, 3 h exposure, 24 h recovery
[6] = with S9 rat liver extract, at 50% cytotoxicity, 3 h exposure, 24 h recovery
[7] = without S9 rat liver extract, at 10% cytotoxicity, 24 h exposure
[8] = without S9 rat liver extract, at 25% cytotoxicity, 24 h exposure
[9] = without S9 rat liver extract, at 50% cytotoxicity, 24 h exposure

C=CC(=O)OCCOC(=O)NCCCCCCn1c(=O)n(CCCCCCNC(=O)OCCOC(=O)C=C)c(=O)n(CCCCCCNC(=O)OC(C)CN2CC2C)c1=O (stereo not shown) [Compound 1]
Bscl 2 GFP reporter induction level [1, 4]: 1.2 fold
Bscl 2 GFP reporter induction level [1, 5]: 1.2 fold
Bscl 2 GFP reporter induction level [1, 6]: 1.2 fold
Bscl 2 GFP reporter induction level [1, 7]: 1.0 fold
Bscl 2 GFP reporter induction level [1, 8]: 1.2 fold
Bscl 2 GFP reporter induction level [1, 9]: 1.3 fold
Genotoxicity conclusion (ToxTracker) [2]: non-genotoxic
Rtkn GFP reporter induction level [3, 4]: 1.0 fold
Rtkn GFP reporter induction level [3, 5]: 1.0 fold
Rtkn GFP reporter induction level [3, 6]: 1.0 fold
Rtkn GFP reporter induction level [3, 7]: 1.0 fold
Rtkn GFP reporter induction level [3, 8]: 1.0 fold
Rtkn GFP reporter induction level [3, 9]: 1.0 fold
